Assay results from patent US12612395B2, “Rocaglate derivatives and uses thereof” (TRUSTEES OF BOSTON UNIVERSITY, priority 2023, dated 2026).
“Also recorded” adds a separate entry of the source.

Tests used:
[1] = biological target: DDX3X:FAM-labeled poly r(AG)8 (Homo sapiens, UniProt O00571); assay: Fluorescence polarization (FP) RNA clamping assay, DDX3X; format: binding; details: 1 mM ATP; for stimulation of DDX3X:(AG)8 complex formation in protein titration, in words: 50 μM rocaglate; for stimulation of DDX3X binding to RNA (change in polarization), in words: compound 10 μM
From the text: Given these observations, the inventors next sought to interrogate the effects of compound (−)-20 in secondary assays for both eIF4A and DDX3 engagement. […] While inherent differences between the FP assay conditions (e.g. probe affinity, protein mobility in FP buffer) preclude direct comparison of absolute AmP values across the two different proteins, the inventors noted that relative anti-CSC potencies for these compounds ((−)-7>(−)-5≈(−)-20) were similar to their relative degrees of clamping for DDX3X and eIF4A1. To follow up on these findings, the inventors performed in vitro translation experiments using a bicistronic mRNA reporter construct FF-HCV-Ren, where translation of the firefly luciferase (FF) cistron is cap-dependent, while translation of the Renilla luciferase (HCV-Ren) cistron is driven off an HCV-IRES, rendering translation of this cistron cap-independent.
Fluorescence Polarization (FP) Assays: Recombinant DDX3X or eIF4A1 (1.5 μM) were incubated with 10 nM FAM-labelled RNA probe and test compounds for 10 min in FP buffer (14.4 mM HEPES-KOH (pH 8), 108 mM NaCl, 1 mM MgCl2, 14.4% glycerol, 0.1% DMSO, 2 mM DTT, 1 mM ATP) at room temperature in black, low-volume 384 well plates (Corning 3820). FP readings were performed using a Pherastar FS microplate reader (BMG Labtech). Compounds were tested at a final concentration of 10 μM.^S9 For ADP+Pi conditions, ATP was substituted with 1 mM ADP and 1 mM Na2HPO4. To assess potency of complex formation, proteins were titrated in the presence of 10 nM probe, 50 μM compounds and 1 mM ATP. Experiments were run in three replicates, with each replicate employing the same master mix of protein, probe and buffer split across the four test conditions (DMSO+three test compounds). Within each replicate, data was normalized such that the highest response across the four tested conditions (as raw AmP counts) was used as 100% relative change in polarization, and the lowest response across the four tested conditions was used as 0% relative change in polarization. Data was analyzed using GraphPad Prism 8.4.0, with a “[Agonist] vs. normalized response” nonlinear regression model used to determine the EC50 for stimulation of helicase-RNA probe binding in the presence of test compound.

[2] = test system: eIF4A paralogs (eIF4A1); assay: PISA assay in GBM0308 cell lysates, eIF4A; format: binding, human; details: GBM0308 lysate, compound 10 μM, AMP-PNP and (AG)8 RNA added
From the text: Derivatization-free target identification using a modified proteome integral solubility alteration (PISA) assay. The inventors next pursued proteome-wide target identification to better understand the target profiles of CSC-selective rocaglates. To enable cross-compound comparisons of target engagement, the inventors opted to use the Proteome Integral Solubility Alteration (PISA) assay,^29 a derivative of the mass spectrometry-based Cellular Thermal Shift Assay (MS-CETSA). In MS-CETSA,^30,31 target engagement is inferred through proteome-wide analysis of compound-induced changes to protein thermal stability; proteins with a shift in their half-maximal thermal denaturation temperature upon compound treatment are flagged as potential targets. The PISA assay obviates the need for MS-CETSA-derived thermal denaturation curves through curve integration by pooling of individual temperature points into a single “integral” sample for each treatment condition, thereby increasing throughput (FIG. 9). In contrast to MS-CETSA (which relies on curve comparisons), PISA determinations are performed by simply comparing soluble protein abundance levels between compound- and DMSO-treated samples. Importantly, protein fold-change measurements in PISA experiments generally scale with the thermal shift derived from CETSA experiments, and the magnitude of a thermal shift can inform on relative affinity between compounds and individual targets.^30,32-25 Maximal stability changes are protein-specific,^36 however, precluding estimations of preference for one target over another. Thus, PISA allows for simultaneous target profiling and comparisons of binding affinity between different compounds within a given target.
Of note, we also detected stabilization of DDX3Y, a paralog which shares >90% sequence similarity with DDX3X.
PISA assay in GBM0308 cell lysates: The PISA assay was performed in lysates as described by Gaetani and coworkers^S2 with slight modification. Pelleted GBM0308 cells were resuspended in ice-cold lysis buffer (1×PBS pH 7.4, 2 mM MgCl2, 0.5 mM AMP-PNP, 1 μM (AG)8 RNA, HALT protease inhibitor cocktail EDTA-free) and subjected to three freeze-thaw cycles with liquid nitrogen to extract lysate proteins. Thawing was performed at room temperature until ˜80% thawed, then completed on ice. Lysate was clarified by centrifugation for 10 minutes at 20,000 RCF and 4° C., transferred to a fresh Eppendorf tube, then centrifuged again for 10 minutes at 20,000 RCF and 4° C. to ensure removal of debris. Lysate concentration was determined using a Pierce BCA Protein Assay Kit and adjusted to 2.0 mg/mL in lysis buffer. Lysate was mixed 1:1 with a 2× solution of test compound or DMSO in lysis buffer, gently aspirated to ensure proper mixing, and incubated at room temperature for 10 minutes. […]

Sequence of DDX3X:FAM-labeled poly r(AG)8 (O00571 whole entry, species assumed): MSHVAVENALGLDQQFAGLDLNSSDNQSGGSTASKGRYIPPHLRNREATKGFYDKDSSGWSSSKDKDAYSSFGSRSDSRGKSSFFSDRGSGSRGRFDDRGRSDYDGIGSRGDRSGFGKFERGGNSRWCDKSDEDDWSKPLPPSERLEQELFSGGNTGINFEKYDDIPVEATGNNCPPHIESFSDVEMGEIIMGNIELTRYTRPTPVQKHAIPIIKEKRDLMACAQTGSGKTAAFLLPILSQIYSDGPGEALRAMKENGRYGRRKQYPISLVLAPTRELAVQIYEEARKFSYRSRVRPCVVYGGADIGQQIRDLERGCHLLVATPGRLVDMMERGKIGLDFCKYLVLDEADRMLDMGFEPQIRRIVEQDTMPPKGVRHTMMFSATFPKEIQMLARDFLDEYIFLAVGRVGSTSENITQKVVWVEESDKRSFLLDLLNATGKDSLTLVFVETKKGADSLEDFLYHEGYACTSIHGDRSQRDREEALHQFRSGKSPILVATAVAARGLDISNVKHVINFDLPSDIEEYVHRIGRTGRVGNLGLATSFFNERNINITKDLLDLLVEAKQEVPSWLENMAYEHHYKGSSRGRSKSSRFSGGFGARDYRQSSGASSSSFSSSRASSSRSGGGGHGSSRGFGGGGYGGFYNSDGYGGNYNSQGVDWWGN

CONC(=O)[C@H]1[C@@H](O)[C@@]2(O)c3c(OC)cc(OC)cc3O[C@@]2(c2ccc(Br)cc2)[C@@H]1c1ccccc1 [(−)-7, SDS-1-021]
stimulation of DDX3X:(AG)8 complex formation in protein titration, in words [1]: clearly favored; also recorded: significant enhancement of binding stimulation
stimulation of DDX3X binding to RNA (change in polarization), in words [1]: stimulated RNA binding to a greater extent
thermal stabilization of eIF4A paralogs (PISA), in words [2]: stabilized

COc1cc(OC)c2c(c1)O[C@@]1(c3ccc(Br)cc3)[C@H](c3ccccc3)[C@@H](C(=O)NS(=O)(=O)N(C)C)[C@@H](O)[C@@]21O [(−)-20, (1R,2R,3S,3aR,8bS)-3a-(4-bromophenyl)-N—(N,N-dimethylsulfamoyl)-1,8b-dihydroxy-6,8-dimethoxy-3-phenyl-2,3,3a,8b-tetrahydro-1H-cyclopenta[b]benzofuran-2-carboxamide]
stimulation of DDX3X:(AG)8 complex formation in protein titration, in words [1]: significant enhancement of binding stimulation
stimulation of DDX3X binding to RNA (change in polarization), in words [1]: stimulated RNA binding to a greater extent
thermal stabilization of eIF4A paralogs (PISA), in words [2]: stabilized

CONC(=O)[C@H]1[C@@H](O)[C@@]2(O)c3c(OC)cc(OC)cc3O[C@@]2(c2ccc(OC)cc2)[C@@H]1c1ccccc1 [(−)-5, CR-1-31b, reference compound]
stimulation of DDX3X:(AG)8 complex formation in protein titration, in words [1]: significantly less efficacious
thermal stabilization of eIF4A paralogs (PISA), in words [2]: stabilization
